The results in this text go back to ChEMBL document CHEMBL1208745, “6-Phenyl-1H-imidazo[4,5-c]pyridine-4-carbonitrile as cathepsin S inhibitors” (Bioorg Med Chem Lett, 2010).

Calls of active or inactive are those of the source. No cut-off for these calls is given here. A value given as a limit tells only on which side of the number the result lay.

Assay [1] has as its target Cathepsin B (Homo sapiens) (UniProt P07858). The assay can be described thus: Inhibition of human cathepsin B by fluorescence assay.
Assay [2] concerns the target Procathepsin L (Homo sapiens) (UniProt P07711). The assay can be described thus: Inhibition of human cathepsin L by fluorescence assay.
The target of assay [3] is T1, Cathepsin S (Homo sapiens, UniProt P25774). As to the kind of experiment: Inhibition of human cathepsin S by fluorescence assay.
Assay [4] addresses T2, Cathepsin K (Homo sapiens, UniProt P43235).
T2 sequence (P43235 whole entry): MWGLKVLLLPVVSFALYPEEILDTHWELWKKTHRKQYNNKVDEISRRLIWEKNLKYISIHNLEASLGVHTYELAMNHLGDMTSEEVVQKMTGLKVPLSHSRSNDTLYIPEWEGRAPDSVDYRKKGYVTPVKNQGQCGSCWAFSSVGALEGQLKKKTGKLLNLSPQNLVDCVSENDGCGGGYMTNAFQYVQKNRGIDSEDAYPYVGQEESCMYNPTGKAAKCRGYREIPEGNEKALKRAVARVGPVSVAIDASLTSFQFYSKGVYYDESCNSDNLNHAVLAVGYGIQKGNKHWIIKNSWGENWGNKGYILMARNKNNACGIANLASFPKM
As to the kind of experiment: Inhibition of human cathepsin K by fluorescence assay.

The target in assay [5] is T1, Cathepsin S. The assay can be described thus: Inhibition of cathepsin S-mediated proteolytic cleavage of MHC2 associated invariant chain in human JY cells assessed as accumulation of lip10 by Western blot analysis. Format: cell-based. (In general: A western blot detects proteins with antibodies after separation by electrophoresis.)

Procathepsin L (Homo sapiens), sequence (P07711 114-333 limits assumed): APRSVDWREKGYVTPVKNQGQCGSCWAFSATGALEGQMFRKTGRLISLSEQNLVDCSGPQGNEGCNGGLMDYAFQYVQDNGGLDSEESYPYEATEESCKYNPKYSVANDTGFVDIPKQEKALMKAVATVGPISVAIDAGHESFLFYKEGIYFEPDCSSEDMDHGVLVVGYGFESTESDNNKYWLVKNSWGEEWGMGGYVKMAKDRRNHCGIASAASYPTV
T1 sequence (P25774 whole entry): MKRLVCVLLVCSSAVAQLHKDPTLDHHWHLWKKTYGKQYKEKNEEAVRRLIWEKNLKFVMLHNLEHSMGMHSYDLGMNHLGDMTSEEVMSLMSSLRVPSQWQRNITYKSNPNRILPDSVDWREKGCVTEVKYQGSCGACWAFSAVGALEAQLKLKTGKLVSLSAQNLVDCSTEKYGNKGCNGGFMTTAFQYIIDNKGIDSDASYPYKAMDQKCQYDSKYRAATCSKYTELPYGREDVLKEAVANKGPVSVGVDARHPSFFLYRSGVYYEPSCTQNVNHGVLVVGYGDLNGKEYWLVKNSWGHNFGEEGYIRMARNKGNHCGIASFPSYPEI

Turning to `CN(C)CCOc1ccc(-c2cc3c(ncn3C)c(C#N)n2)cc1C(F)(F)F`, the inhibition entry in assay [1] and in assay [2] was “inactive” in each case. The IC50 in assay [3] was determined as 209 nM; in assay [4] it was 5890 nM.
For `Cn1cnc2c(C#N)nc(-c3ccc(CCO)c(C(F)(F)F)c3)cc21`, the inhibition result in assay [1] and in assay [2] was “inactive” each time. The IC50 in assay [3] worked out at 71 nM; in assay [4] it was 3160 nM.
`N#Cc1nc(-c2cccc(C(F)(F)F)c2)cc2[nH]cnc12`: the inhibition entry in assay [1] and in assay [2] was “inactive” throughout.
`Cn1cnc2c(C#N)nc(-c3ccc(OCCCN4CCCC4)c(C(F)(F)F)c3)cc21`: the inhibition result in assay [1] and in assay [2] was “inactive” each time. The values for the IC50 in assay [3], in assay [4] and in assay [5] were 28 nM, 871 nM and 89 nM, respectively.
On to `Cn1cnc2c(C#N)nc(-c3ccc(OCC4CCNCC4)c(C(F)(F)F)c3)cc21`, for which the inhibition result in assay [1] and in assay [2] was “inactive” in each case. Further, the IC50 in assay [3] was 14.1 nM; in assay [4] it was 240 nM.
Take `Cn1cnc2c(C#N)nc(-c3ccc(OCc4cccnc4)c(C(F)(F)F)c3)cc21`: the inhibition entry in assay [1] and in assay [2] was “inactive” in each case. Further, the values for the IC50 in assay [3] and in assay [4] were 12.6 nM and over 10000 nM, respectively.
In the case of `N#Cc1nc(-c2ccc(OCc3ccccc3)c(C(F)(F)F)c2)cc2[nH]cnc12`, the inhibition result in assay [1] and in assay [2] was “inactive” in each case. Besides, the figures for the IC50 in assay [3] and in assay [4] were 676 nM and over 10000 nM, respectively.
For `CCOc1ccc(-c2nc(C#N)c3nc[nH]c3n2)cc1C(F)(F)F`, the inhibition result in assay [1] and in assay [2] was “inactive” each time.
As to `N#Cc1nc(-c2ccc(OCCCO)c(C(F)(F)F)c2)cc2[nH]cnc12`, the inhibition result in assay [1] and in assay [2] was “inactive” in each case. Further, the figures for the IC50 in assay [3] and in assay [4] were 63 nM and 2690 nM, respectively.
Take `CCOc1ccc(-c2cc3[nH]cnc3c(C#N)n2)cc1C(F)(F)F`: the inhibition entry in assay [1] and in assay [2] was “inactive” in each case. Moreover, the IC50 in assay [3] stood at 25 nM; in assay [4], 8310 nM.
As for `CCOc1ccc(-c2cc3c(ncn3CCCN3CCOCC3)c(C#N)n2)cc1C(F)(F)F`, the IC50 was found to be 35 nM in assay [3] and 513 nM in assay [4].
For `Cn1cnc2c(C#N)nc(-c3ccc(OCCN4CCCC4=O)c(C(F)(F)F)c3)cc21`, the inhibition result in assay [1] and in assay [2] was “inactive” throughout. Also, the IC50 in assay [3] was 7.8 nM; in assay [4] it was 2510 nM; in assay [5], 1420 nM.
Regarding `Cn1cnc2c(C#N)nc(-c3ccc(OCCC4CCNCC4)c(C(F)(F)F)c3)cc21`, the inhibition entry in assay [1] and in assay [2] was “inactive” in each case. Also, the figures for the IC50 in assay [3], in assay [4] and in assay [5] were 8.3 nM, 178 nM and 9 nM, respectively.
`COc1ccc(-c2cc3[nH]cnc3c(C#N)n2)cc1C(F)(F)F`: the inhibition result in assay [1] and in assay [2] was “inactive” each time. Moreover, the IC50 in assay [3] amounted to 339 nM; in assay [4], 8510 nM.
As for `Cn1cnc2c(C#N)nc(-c3ccc(CCCO)c(C(F)(F)F)c3)cc21`, the inhibition entry in assay [1] and in assay [2] was “inactive” each time. Also, the IC50 amounted to 24 nM in assay [3] and 1070 nM in assay [4].
For `CCCOc1ccc(-c2cc3nc[nH]c3c(C#N)n2)cc1C(F)(F)F`, the IC50 in assay [3] was 200 nM; in assay [4], 7760 nM.
In the case of `CCOc1ccc(-c2cccc(C#N)n2)cc1C(F)(F)F`, the inhibition entry in assay [1] and in assay [2] was “inactive” each time.
For the molecule `CCOc1ccc(-c2cc3c(ncn3CCN(C)C)c(C#N)n2)cc1C(F)(F)F`, the IC50 in assay [3] is 32 nM; in assay [4], 447 nM; in assay [5], 854 nM.
Consider `CCNc1ccc(-c2cc3[nH]cnc3c(C#N)n2)cc1C(F)(F)F`, for which the inhibition entry in assay [1] and in assay [2] was “inactive” throughout. Further, the figures for the IC50 in assay [3] and in assay [4] were 105 nM and over 10000 nM, respectively.
In the case of `N#Cc1nc(-c2cccc(C(F)(F)F)c2)cc2nc[nH]c12`, the IC50 was 1050 nM in assay [3] and 2000 nM in assay [4].
Take `CC(=O)Nc1ccc(-c2cc3[nH]cnc3c(C#N)n2)cc1C(F)(F)F`: the inhibition entry in assay [1] and in assay [2] was “inactive” in each case. The IC50 is 3240 nM in assay [3] and over 10000 nM in assay [4].
On to `CCOc1ccc(-c2cc3c(ncn3C)c(C#N)n2)cc1C(F)(F)F`, for which the inhibition entry in assay [1] and in assay [2] was “inactive” in each case. Besides, the values for the IC50 in assay [3] and in assay [4] were 40 nM and 1260 nM, respectively.
For `Cn1cnc2c(C#N)nc(-c3ccc(OC4CCNCC4)c(C(F)(F)F)c3)cc21`, the inhibition entry in assay [1] and in assay [2] was “inactive” each time. In addition, the IC50 is 316 nM in assay [3] and 891 nM in assay [4].
With `CCOc1ccc(-c2cc3c(ncn3CCCN(C)C)c(C#N)n2)cc1C(F)(F)F`, the IC50 in assay [3] was 27 nM; in assay [4] it was 270 nM; in assay [5], 260 nM.
Consider `Cn1ccc2c(C#N)nc(-c3ccc(OCCN4CCCC4=O)c(C(F)(F)F)c3)cc21`, for which the values for the IC50 in assay [3] and in assay [4] were 661 nM and over 10000 nM, respectively.
For the molecule `Cn1cnc2c(C#N)nc(-c3ccc(OCc4ccncc4)c(C(F)(F)F)c3)cc21`, the inhibition entry in assay [1] and in assay [2] was “inactive” each time. Further, the IC50 is 10 nM in assay [3] and over 10000 nM in assay [4].
Consider `Cc1cccc(CCOc2ccc(-c3cc4c(ncn4C)c(C#N)n3)cc2C(F)(F)F)n1`, for which the inhibition entry in assay [1] and in assay [2] was “inactive” throughout. The IC50 in assay [3] stood at 11 nM; in assay [4] it was 2040 nM; in assay [5] it was 267 nM.
Take `CCCOc1ccc(-c2cc3[nH]cnc3c(C#N)n2)cc1C(F)(F)F`: the inhibition result in assay [1] and in assay [2] was “inactive” throughout.
For `CCOc1ccc(-c2cc3c(ncn3CCN3CCOCC3)c(C#N)n2)cc1C(F)(F)F`, the IC50 in assay [3] is 37 nM; in assay [4], 1660 nM; in assay [5], 10000 nM.
As to `CN1CCN(CCCOc2ccc(-c3cc4c(ncn4C)c(C#N)n3)cc2C(F)(F)F)CC1`, the inhibition result in assay [1] and in assay [2] was “inactive” each time. Further, the values for the half-maximal inhibitory concentration (IC50) in assay [4] and in assay [5] were 468 nM and 106 nM, respectively.
For the molecule `Cn1cnc2c(C#N)nc(-c3ccc(OCCN4CCNC(=O)C4)c(C(F)(F)F)c3)cc21`, the inhibition entry in assay [1] and in assay [2] was “inactive” in each case. In addition, the figures for the IC50 in assay [3] and in assay [4] were 7.8 nM and 1170 nM, respectively.
For the molecule `N#Cc1nc(-c2ccc(OCCO)c(C(F)(F)F)c2)cc2[nH]cnc12`, the inhibition result in assay [1] and in assay [2] was “inactive” throughout. Further, the half-inhibitory concentration (IC50) in assay [3] stood at 145 nM; in assay [4], 2820 nM.

The IC50 is the midpoint of a concentration-inhibition curve.
